Target: T1, rat metabotropic glutamate receptor 5 (mGluR5) (Rattus norvegicus, UniProt P31424)
T1 construct: expressed in transfected cells; host or cells: HEK 293
Assay: Calcium mobilization assay (FLIPR) for negative or positive allosteric activity, HEK 293 cells
Assay type: cell-based
Settings: HEK293, negative allosteric modulation, inhibition of EC80 glutamate response; read-out: FLIPR maximum inhibition
Description: The cDNA for rat metabotropic glutamate receptor 5 (mGluR5) was a generous gift from S. Nakanishi (Kyoto University, Kyoto, Japan). The mGluR5 was stably expressed in a HEK 293 cell line and grown in Dulbecco's Modified Eagle Medium (DMEM) (Invitrogen, Carlsbad, Calif.) with supplements (10% bovine calf serum, 4 mM glutamine, 100 units/mL penicillin, 100 μg/mL streptomycin and 0.75 mM G1418) at 37° C., 5% CO2. Twenty-four hours prior to assay, cells were seeded into 384-well black wall microtiter plates coated with poly-D-lysine. Just prior to assay, media was aspirated and cells dye-loaded (25 μL/well) with 3 μM Fluo-4/0.01% pluronic acid in assay buffer (Hank's Balanced Saline Solution (HBSS)): 150 mM NaCl, 5 mM KCl, 1 mM CaCl2, 1 mM MgCl2, plus 20 mM N-2-Hydroxyethylpiperazine-N′-2-ethanesulfonic acid (HEPES), pH 7.4, 0.1% bovine serum albumin (BSA) and 2.5 mM probenicid) for 1 hour in 5% CO2 at 37° C. After excess dye was discarded, cells were washed in assay buffer and layered with a final volume equal to 30 μL/well. Basal fluorescence is monitored in a fluorometric imaging plate reader (FLIPR) (Molecular Devices, Sunnyvale, Calif.) with an excitation wavelength of 488 nm and an emission range of 500 to 560 nm. Laser excitation energy was adjusted so that basal fluorescence readings were approximately 10,000 relative fluorescent units. Cells were stimulated with an EC20 or an EC80 concentration of glutamate in the presence of a compound to be tested, both diluted in assay buffer, and relative fluorescent units were measured at defined intervals (exposure=0.6 sec) over a 3 min period at room temperature. Basal readings derived from negative controls were subtracted from all samples. Maximum change in fluorescence was calculated for each well. Concentration-response curves derived from the maximum change in fluorescence were analyzed by nonlinear regression (Hill equation). A negative modulator can be identified from these concentration-response curves if a compound produces a concentration dependent inhibition of the EC80 glutamate response. […] Examples 11-163 also were tested in the above assay.
A positive modulator can be identified from these concentration-response curves if a compound produces a concentration dependent increase in the EC20 glutamate response.

T1 sequence (P31424 21-1171 isoform P31424-2 limits assumed): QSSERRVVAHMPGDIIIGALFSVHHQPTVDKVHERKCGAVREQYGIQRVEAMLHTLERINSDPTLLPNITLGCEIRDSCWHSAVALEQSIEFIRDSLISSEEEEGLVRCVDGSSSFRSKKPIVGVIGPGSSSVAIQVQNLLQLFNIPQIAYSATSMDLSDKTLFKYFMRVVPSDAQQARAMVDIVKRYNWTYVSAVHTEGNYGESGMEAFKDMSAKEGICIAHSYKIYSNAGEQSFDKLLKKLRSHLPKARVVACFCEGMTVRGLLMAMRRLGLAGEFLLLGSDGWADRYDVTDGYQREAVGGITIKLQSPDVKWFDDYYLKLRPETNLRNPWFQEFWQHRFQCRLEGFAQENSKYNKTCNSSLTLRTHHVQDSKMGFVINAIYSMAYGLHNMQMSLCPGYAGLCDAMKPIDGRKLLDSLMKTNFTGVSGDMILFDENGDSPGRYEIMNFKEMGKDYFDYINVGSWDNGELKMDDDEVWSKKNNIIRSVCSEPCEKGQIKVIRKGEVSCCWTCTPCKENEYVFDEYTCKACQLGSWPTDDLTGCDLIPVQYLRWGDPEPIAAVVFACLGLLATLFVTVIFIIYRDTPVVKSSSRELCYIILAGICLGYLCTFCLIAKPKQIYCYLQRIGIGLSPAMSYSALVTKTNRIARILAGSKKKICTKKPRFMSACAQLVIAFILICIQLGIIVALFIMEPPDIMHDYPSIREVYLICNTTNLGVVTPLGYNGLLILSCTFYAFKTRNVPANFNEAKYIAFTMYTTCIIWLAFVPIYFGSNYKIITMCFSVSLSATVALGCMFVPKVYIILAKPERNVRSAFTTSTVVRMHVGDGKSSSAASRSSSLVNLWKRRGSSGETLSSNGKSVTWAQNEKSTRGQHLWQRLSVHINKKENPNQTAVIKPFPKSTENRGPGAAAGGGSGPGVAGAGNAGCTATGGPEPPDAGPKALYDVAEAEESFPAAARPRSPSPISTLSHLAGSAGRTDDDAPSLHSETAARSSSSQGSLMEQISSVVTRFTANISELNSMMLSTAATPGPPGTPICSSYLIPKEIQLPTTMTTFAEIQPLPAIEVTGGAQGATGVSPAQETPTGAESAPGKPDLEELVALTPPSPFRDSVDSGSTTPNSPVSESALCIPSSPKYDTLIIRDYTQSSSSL

Emax [%]	SMILES
63 to 99	Cc1cccc(C(=O)NC23CC4CC(C2)CC(NC(=O)c2cn5c(C)cccc5n2)(C4)C3)n1 [Example 55, 5-Methyl-imidazo[1,2-a]pyridine-2-carboxylic acid {3-[(6-methyl-pyridine-2-carbonyl)-amino]-adamantan-1-yl}-amide]
63 to 99	Cc1ccn2cc(C(=O)NC34CC5CC(CC(NC(=O)c6cccc(C)n6)(C5)C3)C4)nc2c1 [Example 56, 7-Methyl-imidazo[1,2-a]pyridine-2-carboxylic acid {3-[(6-methyl-pyridine-2-carbonyl)-amino]-adamantan-1-yl}-amide]
63 to 99	Cc1cccc(C(=O)NC23CC4CC(C2)CC(NC(=O)c2cccc(Cl)n2)(C4)C3)n1 [Example 57, 6-Chloro-pyridine-2-carboxylic acid {3-[(6-methyl-pyridine-2-carbonyl)-amino]-adamantan-1-yl}-amide]
63 to 99	O=C(NC12CC3CC(C1)CC(NC(=O)c1ccccn1)(C3)C2)c1cccc(F)c1 [Example 59, Pyridine-2-carboxylic acid [3-(3-fluoro-benzoylamino)-adamantan-1-yl]-amide]
63 to 99	O=C(NC12CC3CC(C1)CC(NC(=O)c1ccncn1)(C3)C2)c1ccccn1 [Example 60, Pyrimidine-4-carboxylic acid {3-[(pyridine-2-carbonyl)-amino]-adamantan-1-yl}-amide]
63 to 99	O=C(NC12CC3CC(C1)CC(NC(=O)c1cccc(N4CCCC4)n1)(C3)C2)c1ccccn1 [Example 61, 6-Pyrrolidin-1-yl-pyridine-2-carboxylic acid {3-[(pyridine-2-carbonyl)-amino]-adamantan-1-yl}-amide]
63 to 99	O=C(NC12CC3CC(C1)CC(NC(=O)c1onc4ccccc14)(C3)C2)c1ccccn1 [Example 62, Benzo[c]isoxazole-3-carboxylic acid {3-[(pyridine-2-carbonyl)-amino]-adamantan-1-yl}-amide]
63 to 99	CNC(=O)c1cccc(C(=O)NC23CC4CC(CC(NC(=O)c5ccccn5)(C4)C2)C3)n1 [Example 64, Pyridine-2,6-dicarboxylic acid 2-methylamide 6-({3-[(pyridine-2-carbonyl)-amino]-adamantan-1-yl}-amide)]
63 to 99	O=C(NC12CC3CC(C1)CC(NC(=O)c1ccc4[nH]ccc4n1)(C3)C2)c1ccccn1 [Example 66, 1H-Pyrrolo[3,2-b]pyridine-5-carboxylic acid {3-[(pyridine-2-carbonyl)-amino]-adamantan-1-yl}-amide]
63 to 99	COc1cccc(C(=O)NC23CC4CC(CC(NC(=O)c5ccccn5)(C4)C2)C3)n1 [Example 68, 6-Methoxy-pyridine-2-carboxylic acid {3-[(pyridine-2-carbonyl)-amino]-adamantan-1-yl}-amide]
63 to 99	CC(C)(C)OC(=O)N1CCc2cc(C(=O)NC34CC5CC(C3)CC(NC(=O)c3ccccn3)(C5)C4)ccc2C1 [Example 70, 6-{3-[(Pyridine-2-carbonyl)-amino]-adamantan-1-yl-carbamoyl}-3,4-dihydro-1H-isoquinoline-2-carboxylic acid tert-butyl ester]
63 to 99	O=C(NC12CC3CC(C1)CC(NC(=O)c1ccccn1)(C3)C2)c1ccccc1 [Example 71, Pyridine-2-carboxylic acid (3-benzoylamino-adamantan-1-yl)-amide]
63 to 99	Cc1cc(C(=O)NC23CC4CC(CC(NC(=O)c5ccccn5)(C4)C2)C3)no1 [Example 73, Pyridine-2-carboxylic acid {3-[(5-methyl-isoxazole-3-carbonyl)-amino]-adamantan-1-yl}-amide]
63 to 99	O=C(NC12CC3CC(C1)CC(NC(=O)c1cccs1)(C3)C2)c1ccccn1 [Example 75, Pyridine-2-carboxylic acid {3-[(thiophene-2-carbonyl)-amino]-adamantan-1-yl}-amide]
63 to 99	Cn1ccc(C(=O)NC23CC4CC(CC(NC(=O)c5ccccn5)(C4)C2)C3)n1 [Example 76, Pyridine-2-carboxylic acid {3-[(1-methyl-1H-pyrazole-3-carbonyl)-amino]-adamantan-1-yl}-amide]
63 to 99	O=C(NC12CC3CC(C1)CC(NC(=O)c1ccno1)(C3)C2)c1ccccn1 [Example 77, Pyridine-2-carboxylic acid {3-[(isoxazole-5-carbonyl)-amino]-adamantan-1-yl}-amide]
63 to 99	Cc1cc(C(=O)NC23CC4CC(CC(NC(=O)c5ccccn5)(C4)C2)C3)on1 [Example 78, Pyridine-2-carboxylic acid {3-[(3-methyl-isoxazole-5-carbonyl)-amino]-adamantan-1-yl}-amide]
63 to 99	COc1cccc(C(=O)NC23CC4CC(C2)CC(NC(=O)c2ccccn2)(C4)C3)c1 [Example 80, Pyridine-2-carboxylic acid [3-(3-methoxy-benzoylamino)-adamantan-1-yl]-amide]
63 to 99	COc1ccc(C(=O)NC23CC4CC(C2)CC(NC(=O)c2ccccn2)(C4)C3)cc1 [Example 81, Pyridine-2-carboxylic acid [3-(4-methoxy-benzoylamino)-adamantan-1-yl]-amide]
63 to 99	O=C(NC12CC3CC(C1)CC(NC(=O)C1CCC1)(C3)C2)c1ccccn1 [Example 82, Pyridine-2-carboxylic acid [3-(cyclobutanecarbonyl-amino)-adamantan-1-yl]-amide]
63 to 99	O=C(NC12CC3CC(C1)CC(NC(=O)C1CC1(F)F)(C3)C2)c1ccccn1 (stereo not drawn) [Example 83, Pyridine-2-carboxylic acid {3-[(2,2-difluoro-cyclopropanecarbonyl)-amino]-adamantan-1-yl}-amide]
63 to 99	O=C(NC12CC3CC(C1)CC(NC(=O)C1CCCCC1)(C3)C2)c1ccccn1 [Example 84, Pyridine-2-carboxylic acid [3-(cyclohexanecarbonyl-amino)-adamantan-1-yl]-amide]
63 to 99	O=C(NC12CC3CC(C1)CC(NC(=O)C1CCCC1)(C3)C2)c1ccccn1 [Example 85, Pyridine-2-carboxylic acid [3-(cyclopentanecarbonyl-amino)-adamantan-1-yl]-amide]
63 to 99	O=C(NC12CC3CC(C1)CC(NC(=O)c1cn4cc(Cl)ccc4n1)(C3)C2)c1ccccn1 [Example 86, 6-Chloro-imidazo[1,2-a]pyridine-2-carboxylic acid {3-[(pyridine-2-carbonyl)-amino]-adamantan-1-yl}-amide]
63 to 99	O=C(NC12CC3CC(C1)CC(NC(=O)c1ccccn1)(C3)C2)c1ccn2ccnc2c1 [Example 87, Imidazo[1,2-a]pyridine-7-carboxylic acid {3-[(pyridine-2-carbonyl)-amino]-adamantan-1-yl}-amide]
63 to 99	O=C(NC12CC3CC(C1)CC(NC(=O)c1cn4ccccc4n1)(C3)C2)c1ccccn1 [Example 88, Imidazo[1,2-a]pyridine-2-carboxylic acid {3-[(pyridine-2-carbonyl)-amino]-adamantan-1-yl}-amide]
63 to 99	O=C(NC12CC3CC(C1)CC(NC(=O)c1ccccn1)(C3)C2)c1ccc2nccn2c1 [Example 89, Imidazo[1,2-a]pyridine-6-carboxylic acid {3-[(pyridine-2-carbonyl)-amino]-adamantan-1-yl}-amide]

— US8716284B2, “Adamantyl diamide derivatives and uses of same” (H. Lundbeck A/S, priority 2008, dated 2014)
